“Also recorded” adds a separate entry of the source.
Tests used:
[1] = tested on: M. hyopneumoniae-induced [Ca2+]i increase in porcine ciliated tracheal cells; assay: Effect of pretreatment of tracheal cells on M. hyopneumoniae-induced [Ca2+]i increase; assay type: cell-based
Method: (§1) The following techniques were used to obtain [Ca^2+]i measurements in single cells. The tracheal cells were loaded with 4 μM fura-2 acetoxymethyl ester (fura-2AM) in Krebs-Ringer bicarbonate (KRB) buffer solution containing: 136 mM NaCl, 4.8 mM KCl, 1.5 mM CaCl2, 1.2 mM KH2PO4, 1.2 mM MgSO4, 10 mM HEPES, 5.5 mM glucose, and 0.1% BSA, pH 7.4 and incubated for 30 minutes at 37° C. The loaded cells were centrifuged (700× g, 2 minutes), then resuspended with KRB at a concentration of 500-1000 cells/mL. The tracheal cells loaded with fura-2AM were plated onto poly-lysine-coated coverslips in a custom-made Petri dish. The dish containing fura-2 loaded cells was mounted on the stage of an inverted fluorescence microscope (Carl Zeiss, NY). Only viable ciliated tracheal cells were focused on for the determination of [Ca^2+]i at 24° C. The fura-2 loaded porcine ciliated tracheal cells deteriorated quickly at 37° C. Fluorescence images were obtained (excitation wavelengths of 334 and 380 nm; emission wavelength of 510±20 nm) and used to generate spatially resolved maps of [Ca^2+]i by subtracting the background dividing the images on a pixel-by-pixel basis. The emitted signals were digitalized, recorded, and processed using the Attofluor digital fluorescence imaging system (Atto Instruments, Rockville, Md.). After reading fluorescence for 150 seconds, mycoplasmas were mixed with the cell system. [Ca^2+]i was calculated as previously described (Grynkiewicz et al., J. Biol. Chem., 260:3440-3450 (1985)). Calibration was performed in situ according to the procedure provided by Atto Instruments, using Fura-2 penta K^+ as a standard.
To investigate the pathway of Ca^2+ signaling, pertussis toxin (PTX, 100 ng/mL) was preincubated with tracheal cells for 3 hours. Cells were pretreated with thapsigargin (TG, 1 μM) for 30 minutes at 37° C. prior to the addition of the mycoplasmas to deplete the ER Ca^2+ store (Thastrup et al., Proc. Natl. Acad. Sci. USA, 87:2466-2470 (1990)). […] To confirm that mycoplasmas increased [Ca^2+]i by activating a Gi/o protein, Mas 7 (10 μM), an activator of this protein (Higashijima et al., J. Biol. Chem., 265:14176-14186 (1990)), was used to determine if it can increase [Ca^2+]i in tracheal cells. In addition, it was determined whether PTX can block the increase in [Ca^2+]i due to Mas 7.

[2] = tested on: porcine ciliated tracheal epithelial cells; assay: [Ca2+]i measurement in single fura-2 loaded ciliated tracheal cells; assay type: cell-based
Method: Tracheal cells were isolated as previously described (Young et al., Vet. Microbiol., 71:269-279 (1999)). Briefly, the tracheas were removed from 3-6 month old specific-pathogen-free pigs anesthetized with sodium pentobarbital using aseptic techniques. The ciliated cells were dissociated using 0.15% pronase and 0.01% DNase in Ca^2+- and Mg^2+-free MEM medium, which was incubated at 4° C. for 24 hours. The epithelial cells were collected by centrifugation at 125× g for 5 minutes. The cell pellets were resuspended in a mixture of DMEM (high glucose) and Ham's F-12 (1:1) media containing 5% FBS, 0.12 U/mL of insulin, and 100 U/mL of penicillin-streptomycin. Cell suspensions were transferred to 90-mm tissue culture dishes and incubated in 5% CO2 for 60-90 minutes to remove fibroblasts. The tracheal epithelial cells were stored in liquid nitrogen until use.
as §1
To compare the [Ca^2+]i of tracheal cells response to pathogenic M. hyopneumoniae strain 91-3, avirulent M. hyopneumoniae, and M. flocculare, the cells were treated with the same concentration of 300 μg/mL. One to five ciliated single tracheal cells in each experiment were selected to investigate the [Ca^2+]i changes. The mycoplasmas were maintained on ice before being applied to tracheal cells.
Data on [Ca^2+]i were analyzed by ANOVA or by Student's t-test. The significance level was set at P<0.05.

[3] = tested on: Mas 7-induced [Ca2+]i increase in ciliated tracheal cells; assay: Effect of PTX pretreatment on Mas 7-induced [Ca2+]i increase; assay type: cell-based, porcine; details: PTX pretreatment (100 ng/mL, 3 hours); Mas 7 10 μM
Method: as §1, with “Only viable ciliated tracheal cells were focused on for the determination of [Ca^2+]i at 24° C. The fura-2 loaded porcine ciliated tracheal cells deteriorated quickly at 37° C.” left out, “Calibration was performed in situ according to the procedure provided by Atto Instruments, using Fura-2 penta K^+ as a standard.” left out

[4] = tested on: Mhyo membrane-induced [Ca2+]i increase in ciliated tracheal cells; assay: Protease pretreatment of Mhyo membrane, effect on membrane-induced [Ca2+]i increase; assay type: cell-based, porcine
Method: FIG. 6 contains four graphs plotting [Ca^2+]i response in ciliated porcine tracheal cells inoculated with Mhyo membranes. Each trace indicates the [Ca^2+]i changes in each tracheal cell. The arrows indicate when administration occurred. (A) The membrane preparation (100 μg/mL) increased [Ca^2+]i. (B) Digestion with proteinase K blocked the membrane-induced increase in [Ca^2+]i. The membrane (100 μg/0.1 mL PBS) was incubated with proteinase K (2 μg) at 37° C. for 8 hours before it was applied to tracheal cells in 0.9 mL Krebs-Ringer bicarbonate (KRB) buffer. (C) Digestion with trypsin potentiated the membrane-induced increase in [Ca^2+]i. The membrane (100 μg/0.1 mL PBS) was incubated with trypsin (6 μg) at 37° C. for 30 minutes before it was applied to tracheal cells in 0.9 mL KRB. […] The soluble protein was prepared by subjecting the trypsinized membrane to ultracentrifigation (100,000× g, 60 minutes) to obtain the supernatant.
Mycoplasmas lack cell walls and have only one type of membrane, the plasma membrane (Razin S. (1993) Mycoplasma membranes as models in membrane research (Chapter 2), In: Subcellular Biochemistry. Vol 20: Mycoplasma Cell Membranes, edited by Rottem S, Kahane I. Plenum Press, New York. pp. 1-28). The Mhyo membrane was prepared by osmotic lysis of the organisms and tested to determine if it increased [Ca^2+]i in ciliated tracheal cells. […]

[5] = tested on: guinea pig tracheal epithelia; details: trypsin 0.1 U/mL; cited from earlier work

COc1ccc2c(c1)CC[C@@H]1[C@@H]2CC[C@]2(C)[C@@H](NCCCCCCN3C(=O)C=CC3=O)CC[C@@H]12 [U-73122]
effect on M. hyopneumoniae-induced [Ca2+]i increase ([1]; pretreatment 2 μM, 100 seconds, U-73122): abolished; also recorded: prevented

COc1ccc2c(c1)CC[C@@H]1[C@@H]2CC[C@]2(C)[C@@H](NCCCCCCN3C(=O)CCC3=O)CC[C@@H]12 [U-73343]
cells that responded to mycoplasma with pretreatment ([1]; U-73343 2 μM): 82% | peak [Ca2+]i after mycoplasma with pretreatment ([1]; U-73343 2 μM, basal: 90±12 nM, 10 cells): 330 ± 25 nM | effect on M. hyopneumoniae-induced [Ca2+]i response ([1]; pretreatment 2 μM, inactive analogue U-73343): did not prevent

C/C=C(/C)C(=O)O[C@H]1C(C)=C2[C@H]([C@@H]1OC(=O)CCCCCCC)[C@@](C)(OC(C)=O)C[C@H](OC(=O)CCC)[C@@]1(O)[C@H]2OC(=O)[C@@]1(C)O [thapsigargin]
effect on M. hyopneumoniae-induced [Ca2+]i increase ([1]; pretreatment 1 μM, 30 minutes, mycoplasma 300 μg/mL): abolished

Mastoparan 7
[Ca2+]i after administration ([2]; 10 μM, from basal level of 103±4 nM, n=9 cells): 351 ± 24 nM | cells that responded ([2]; Mas 7 10 μM): 82% | time to [Ca2+]i increase ([2]; Mas 7 10 μM): ≤ 100 s | effect on [Ca2+]i ([2]; Mas 7 administration): increased

pertussis toxin
effect on M. hyopneumoniae-induced [Ca2+]i increase ([1]; pretreatment 100 ng/mL, 3 hours): abolished | effect on Mas 7-induced [Ca2+]i increase [3]: abolished

trypsin
effect of trypsin pretreatment on membrane-induced [Ca2+]i increase ([4]; pretreatment of the membrane for 30 minutes): potentiated | effect of trypsin pretreatment on membrane-induced [Ca2+]i increase ([4]; pretreatment of the membrane for 16 hours): failed to reduce | effect on [Ca2+]i [5]: can increase | effect of trypsin alone on [Ca2+]i ([2]; trypsin alone at ≧1 U/mL): increase

From patent US20050287163A1, “Mycoplasma polypeptides” (priority 2002, published 2005)
